Test results as given in article doi:10.1101/2024.04.19.590212v1 (biorxiv, 2024).
Read-outs that look alike come from different tables or passages of the source.

Legend:
5-HT2CR [1] = target: T1, 5-HT2CR (Homo sapiens, UniProt P28335); experiment: cell-based
5-HT1BR [2] = target: T2, 5-HT1BR (Homo sapiens, UniProt P28222); experiment: cell-based
5-HT2AR [3] = target: T3, 5-HT2AR (Homo sapiens, UniProt P28223); experiment: cell-based; conditions: U2OS, read-out: 5-HT2AR Rmax (internalization)
5-HT1BR [4] = target: T2, 5-HT1BR; experiment: cell-based; remark: listed apart in the source
5-HT2CR [5] = target: T1, 5-HT2CR; conditions: antagonist mode against 5-HT-induced response; incomplete inhibition
5-HT1BR [6] = target: T2, 5-HT1BR; experiment: cell-based; conditions: CHO-K1, read-out: 5-HT1BR Rmax (cAMP)
5-HT2AR [7] = target: T3, 5-HT2AR; experiment: cell-based; conditions: U2OS, read-out: 5-HT2AR Rmax (beta-arrestin)
5-HT2CR [8] = target: T1, 5-HT2CR; experiment: cell-based; remark: listed apart in the source
5-HT2CR [9] = target: T1, 5-HT2CR; conditions: agonist mode; partial agonist

T2 sequence (P28222 whole entry): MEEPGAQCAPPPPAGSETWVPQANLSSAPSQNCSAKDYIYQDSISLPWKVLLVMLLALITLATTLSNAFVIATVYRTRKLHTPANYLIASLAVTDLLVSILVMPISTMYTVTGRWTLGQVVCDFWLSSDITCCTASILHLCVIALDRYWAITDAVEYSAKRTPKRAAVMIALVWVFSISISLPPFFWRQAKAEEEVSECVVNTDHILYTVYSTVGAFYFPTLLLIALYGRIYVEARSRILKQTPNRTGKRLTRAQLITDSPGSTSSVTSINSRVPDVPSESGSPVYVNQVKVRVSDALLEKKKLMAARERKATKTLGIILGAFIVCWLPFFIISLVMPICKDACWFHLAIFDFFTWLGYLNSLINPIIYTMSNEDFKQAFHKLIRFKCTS
T1 sequence (P28335 33-458): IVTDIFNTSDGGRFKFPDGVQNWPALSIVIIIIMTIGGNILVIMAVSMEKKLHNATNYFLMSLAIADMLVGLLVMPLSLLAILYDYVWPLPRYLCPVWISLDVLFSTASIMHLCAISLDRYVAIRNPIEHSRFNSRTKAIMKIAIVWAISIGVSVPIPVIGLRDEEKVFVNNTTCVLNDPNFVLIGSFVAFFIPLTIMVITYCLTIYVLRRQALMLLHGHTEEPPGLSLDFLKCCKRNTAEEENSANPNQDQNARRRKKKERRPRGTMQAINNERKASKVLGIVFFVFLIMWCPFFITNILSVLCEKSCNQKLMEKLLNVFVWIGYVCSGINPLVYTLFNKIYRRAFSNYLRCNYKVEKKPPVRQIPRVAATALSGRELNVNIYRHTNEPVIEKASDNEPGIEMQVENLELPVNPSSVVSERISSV
T3 sequence (P28223 whole entry): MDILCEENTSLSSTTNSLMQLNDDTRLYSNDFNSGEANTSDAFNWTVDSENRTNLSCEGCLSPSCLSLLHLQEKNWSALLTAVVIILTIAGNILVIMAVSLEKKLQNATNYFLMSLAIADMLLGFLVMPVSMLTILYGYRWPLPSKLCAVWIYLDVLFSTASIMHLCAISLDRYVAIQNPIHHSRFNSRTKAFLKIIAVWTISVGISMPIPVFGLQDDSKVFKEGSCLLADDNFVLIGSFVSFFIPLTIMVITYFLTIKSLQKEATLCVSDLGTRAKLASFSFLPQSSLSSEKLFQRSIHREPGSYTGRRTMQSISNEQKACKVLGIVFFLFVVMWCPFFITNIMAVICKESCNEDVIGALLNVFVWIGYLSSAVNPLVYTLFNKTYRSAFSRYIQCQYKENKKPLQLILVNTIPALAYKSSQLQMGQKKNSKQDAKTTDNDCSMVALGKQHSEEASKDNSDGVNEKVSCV

COc1cc(C(F)(F)F)c(OC)cc1[C@@H]1CCCNC1 [LPH-5, (S)-3-(2,5-dimethoxy-4-(trifluoromethyl)phenyl)piperidine] showed an EC50 (5-HT2CR [1]) of over 30000 nM, an EC50 (5-HT1BR [2]) of 870 nM and an Emax (5-HT2AR [3]) of 94 ± 11%. For the same compound, the EC50 (5-HT1BR [4]) was over 30000 nM, the IC50 (5-HT2CR [5]) was 300 [pIC50 6.52 ± 0.08] nM and the Emax (5-HT1BR [6]) was 78%. The Emax (5-HT2AR [7]) was 61 ± 11%, the IC50 (5-HT2CR [8]) was 38 nM and the EC50 (5-HT2CR [9]) was 110 [pEC50 6.96 ± 0.07] nM.
